Results published in paper PMC11298695.
In brackets after ≈: the same amount, converted by molar mass. Where two headings read alike, the source gives them in different places.

Key:
[1] = Environmental pH of dissolution media; type: physicochemical
[2] = system: Caco-2 cell monolayer; test: Caco-2 cell monolayer transport of DAI (AP to BL); type: in vitro ADME; details: 120 min
Method: (§1) Caco-2 cells were seeded on 12-well Transwell® (Corning Costar, Lowell, MA, United States) culture plates (pore size 0.4 µm, surface area 1.12 cm^2) at 5 × 10^4 cells/mL. On the 3rd, 5th, 7th, 13th, 18th, and 21st days of culture, the transepithelial electrical resistance (TEER) value was measured using an EVOM2 transmembrane resistance meter (Millipore, United States) to evaluate the integrity of the Caco-2 cell monolayer.
(§2) After washing the Caco-2 cell monolayer twice with prewarmed Hank’s Balanced Salt Solution (HBSS), the transport experiments were performed by adding the final concentration of DAI (0.5 mL) to the apical side (AP) as the donor chamber, and adding HBSS (1.5 mL) to the basolateral side (BL) as the receiving chamber. The plate was incubated at 37°C and 200 μL of sample was collected from the BL side at 30, 45, 60, 90, and 120 min. […]
(§3) The apparent permeability coefficient (P app ) for DAI was calculated using Eq. 3 ([Ndayishimiye et al., 2022]). Papp=dQ/dt∗1/A∗C0 cm/s (3) where Q refers to the cumulative transport amount, i.e., the total drug quantity on the receiving side (μg); dQ/dt represents the transport rate of the drug through the Caco-2 cell monolayer (μg/s); A denotes the chamber membrane area (1.12 cm^2); and C0 is the initial concentration of DAI on the AP side (μg/mL).

[3] = Caco-2 cell monolayer transport of DAI (AP to BL); type: in vitro ADME; details: human, Caco-2, DAI 50 μg/mL, read-out: apparent permeability coefficient (P app)
Method: as §1, §2, §3

[4] = Powder dissolution (apparent solubility) in pH 6.8 phosphate buffer and water; type: physicochemical
Method: A Model 1,525 system (Waters Corporation, Milford MA, United States) equipped with a photodiode array (PDA) detector (Waters 2998, Milford MA, United States) and a SunFire C18 column (4.6 mm × 250 mm, 5 μm, Waters, Ireland) was used for HPLC analysis. The column temperature was maintained at 37°C and the autosampler temperature was room temperature. The mobile phase consisted of methanol and H2O (70:30, v/v) at a flow rate of 1.0 mL/min. The detection wavelength of the UV detector was 248 nm and the injection volume of sample was 20 µL. The standard curve ranged from 10 μg/mL to 0.078125 μg/mL. […] The powders were sieved using standard sieves to control particle size within 75–150 µm. […] The filtrates were diluted to an appropriate concentration, and analyzed using HPLC.

[5] = no reference given; cited from earlier work
[6] = in vivo; details: male, dog, plasma, beagle dogs, oral, 40 mg/kg
[7] = system: Caco-2 cells; test: in vitro; type: cell-based; details: Caco-2, CCK-8
[8] = in vitro; type: cell-based; details: human, Caco-2 cells, read-out: cell viability; for viability at 24 h: Caco-2, 24 h
[9] = ref Nan et al., 2014, Panizzon et al., 2019; cited from earlier work
[10] = Efflux function of the Caco-2 cell model with Rhodamine 123; type: in vitro ADME; details: human

For `O=c1c(-c2ccc(O)cc2)coc2cc(O)ccc12` [DAI, 4′,7-dihydroxyisoflavone], the “environmental pH” value ([1]; medium pH6.8 buffer) was 6.74 ± 0.03, the “environmental pH” value ([1]; medium water (pH 7.0)) was 3.80 ± 0.06 and the “cumulative transport of DAI” value [2] was 9.19 ± 0.65 µg. For the same compound, the Papp at 120 min, 50 μg/mL [3] was 22.8 ± 1.6 ×10⁻⁶ cm/s, the “peak time of Smax” value ([4]; pH 6.8 buffer) was 45 min and the solubility at 45 min ([4]; pH 6.8 phosphate buffer, aqueous buffer, thermodynamic from solid, pH 6.8 buffer, 37°C, powder dissolution, read-out: maximum apparent solubility (Smax)) was 1.01 ± 0.06 µg/mL (≈ 3.97 µM). The “time to reach Smax” value ([4]; water) was ≤ 240 min, the solubility at 240 min ([4]; water, 37 °C, water, thermodynamic from solid, read-out: maximum apparent solubility (Smax)) was 0.48 ± 0.09 µg/mL (≈ 1.89 µM) and the pK a [5] was 7.43. The Tmax [6] was 49.8 ± 8.4 min, the Cmax [6] was 210 ± 40 ng/mL and the AUC ([6]; read-out: AUC0∼24) was 1740 ± 150 ng·h/mL. For the same compound, the “effect on Caco-2 cells” value [7] was “dose-dependent inhibitory effect”, the viability at 24 h ([8]; 1st of five listed concentrations (not assigned)) was 87% and the viability at 24 h ([8]; 2nd of five listed concentrations (not assigned)) was 88.1%. It also gave a viability at 24 h ([8]; 3rd of five listed concentrations (not assigned)) of 94.7%, a viability at 24 h ([8]; 4th of five listed concentrations (not assigned)) of 98% and a viability at 24 h ([8]; 5th of five listed concentrations (not assigned)) of 94%. The water solubility [9] was 0.31 µg/mL (≈ 1.22 µM).
`C1CNCCN1` [PIP, Piperazine] gave a viability at 24 h, 16.94 μg/mL ([8]; Caco-2, PIP 16.94 μg/mL) of 85.2%.
In the case of `COC(=O)c1ccccc1-c1c2ccc(=N)cc-2oc2cc(N)ccc12` [Rhodamine 123], the Papp A→B at 120 min ([10]; 120 min) is reported as 0.179 ± 0.061 ×10⁻⁶ cm/s, the Papp B→A at 120 min ([10]; 120 min) is reported as 0.852 ± 0.016 ×10⁻⁶ cm/s and the efflux ratio at 120 min ([10]; Papp BL→AP / Papp AP→BL, read-out: Efflux ratio (ER)) is reported as 4.76.
